# Tests used:
# Experiment in all cases: In vitro antibacterial evaluation: minimum inhibitory concentration (MIC), broth dilution method
# Type in all cases: cell-based
# Enterococcus sp. = conditions: 18 hours at 35° C.
# Summary of the method: (§1)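 MIC read as lowest drug level preventing visible growth. Organisms at 5×10^5 CFU/mL were exposed to a 64-0.06 μg/mL dilution series in Muller-Hinton II […] following NCCLS broth dilution standard M7-A2.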
# Staphylococcus sp. = test system: Staphylococcus sp.
# Summary of the method: as §1
# Streptococcus sp. = conditions: 18 hours at 35° C.
# Summary of the method: as §1
# Escherichia coli = conditions: 18 hours at 35° C.
# Summary of the method: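 Broth dilution per NCCLS M7-A2 in Muller-Hinton II […], inoculum 5×10^5 CFU/mL, antibiotic tested over 64-0.06 μg/mL. MIC is taken as the lowest concentration that inhibits growth. Panel includes recent clinical isolates resistant to methicillin, penicillin and/or vancomycin.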
# [1] = broth dilution, inoculum 5×10^5 CFU/mL
smiles,measurement,setting,value
CC(C)=CCCC(C)=CCCC(C)=CCOc1cccc(C2OCC3OC(OC4C(CO)OC(Oc5ccc(CC6NC(=O)C(C(C)c7ccccc7)NC(=O)CNC(=O)C(CO)NC(=O)C(C(O)C7CNC(=N)N7C7OC(CO)C(O)C(O)C7O)NC(=O)C(C(O)C7CNC(=N)N7)NC6=O)cc5)C(O)C4O)C(O)C(O)C3O2)c1 (stereo not shown) [Example 185],MIC Enterococcus avium (GC 4558),Enterococcus sp.; Enterococcus avium (GC 4558),64 mg/L
same,MIC Enterococcus faecalis (ATCC 29212),Enterococcus sp.; Enterococcus faecalis (ATCC 29212),>64 mg/L
same,MIC Enterococcus faecalis (GC 2242),Enterococcus sp.; Enterococcus faecalis (GC 2242),>64 mg/L
same,MIC Enterococcus faecalis (GC 2691),Enterococcus sp.; Enterococcus faecalis (GC 2691),>64 mg/L
same,MIC Enterococcus faecalis (GC 3059),Enterococcus sp.; Enterococcus faecalis (GC 3059),>64 mg/L
same,MIC Enterococcus faecalis (GC 4552),Enterococcus sp.; Enterococcus faecalis (GC 4552),>64 mg/L
same,MIC Enterococcus faecalis (GC 4553),Enterococcus sp.; Enterococcus faecalis (GC 4553),32 mg/L
same,MIC Enterococcus faecalis (GC 4554),Enterococcus sp.; Enterococcus faecalis (GC 4554),>64 mg/L
same,MIC Enterococcus faecalis (GC 6189),Enterococcus sp.; Enterococcus faecalis (GC 6189),>64 mg/L
same,MIC Enterococcus faecium (GC 2243),Enterococcus sp.; Enterococcus faecium (GC 2243),32 mg/L
same,MIC Enterococcus faecium (GC 4556),Enterococcus sp.; Enterococcus faecium (GC 4556),>64 mg/L
same,MIC Enterococcus faecium (GC 4557),Enterococcus sp.; Enterococcus faecium (GC 4557),>64 mg/L
same,MIC Enterococcus avium (GC 4558),Enterococcus sp.; [1],64 mg/L
same,MIC Enterococcus faecalis (ATCC 29212),Enterococcus sp.; [1],>64 mg/L
same,MIC Enterococcus faecalis (GC 2242),Enterococcus sp.; [1],>64 mg/L
same,MIC Enterococcus faecalis (GC 2691),Enterococcus sp.; [1],>64 mg/L
same,MIC Enterococcus faecalis (GC 3059),Enterococcus sp.; [1],>64 mg/L
same,MIC Enterococcus faecalis (GC 4552),Enterococcus sp.; [1],>64 mg/L
same,MIC Enterococcus faecalis (GC 4553),Enterococcus sp.; [1],32 mg/L
same,MIC Enterococcus faecalis (GC 4554),Enterococcus sp.; [1],>64 mg/L
same,MIC Enterococcus faecalis (GC 6189),Enterococcus sp.; [1],>64 mg/L
same,MIC Enterococcus faecium (GC 2243),Enterococcus sp.; [1],32 mg/L
same,MIC Enterococcus faecium (GC 4556),Enterococcus sp.; [1],>64 mg/L
same,MIC Enterococcus faecium (GC 4557),Enterococcus sp.; [1],>64 mg/L
same,MIC Staphylococcus aureus (ATCC 29213),Staphylococcus sp.; strain ATCC 29213,>64 mg/L
same,MIC Staphylococcus aureus (GC 1131),Staphylococcus sp.; strain GC 1131,>64 mg/L
same,MIC Staphylococcus aureus (GC 3051),Staphylococcus sp.; strain GC 3051,>64 mg/L
same,MIC Staphylococcus aureus (GC 3053),Staphylococcus sp.; strain GC 3053,>64 mg/L
same,MIC Staphylococcus aureus (GC 4541),Staphylococcus sp.; strain GC 4541,>64 mg/L
same,MIC Staphylococcus aureus (GC 4542),Staphylococcus sp.; strain GC 4542,>64 mg/L
same,MIC Staphylococcus aureus-SMITH (GC 4543),Staphylococcus sp.; strain GC 4543,>64 mg/L
same,MIC Staphylococcus aureus (GC 4544),Staphylococcus sp.; strain GC 4544,>64 mg/L
same,MIC Staphylococcus aureus (GC 4545),Staphylococcus sp.; strain GC 4545,>64 mg/L
same,MIC Staphylococcus haemolyticus (GC 4546),Staphylococcus sp.; strain GC 4546,>64 mg/L
same,MIC Coagulase Negative Staphylococcus (GC 4547),Staphylococcus sp.; strain GC 4547,>64 mg/L
same,MIC Coagulase Negative Staphylococcus (GC 4548),Staphylococcus sp.; strain GC 4548,>64 mg/L
same,MIC Coagulase Negative Staphylococcus (GC 4549),Staphylococcus sp.; strain GC 4549,>64 mg/L
same,MIC Coagulase Negative Staphylococcus (GC 4551),Staphylococcus sp.; strain GC 4551,>64 mg/L
same,MIC Coagulase Negative Staphylococcus (GC 6257),Staphylococcus sp.; strain GC 6257,>64 mg/L
same,MIC Streptococcus agalactiae (GC 4564),Streptococcus sp.; Streptococcus agalactiae (GC 4564),1 mg/L
same,MIC Streptococcus pneumoniae (ATCC 6301),Streptococcus sp.; Streptococcus pneumoniae (ATCC 6301),0.12 mg/L
same,MIC Streptococcus pneumoniae (GC 1894),Streptococcus sp.; Streptococcus pneumoniae (GC 1894),<0.06 mg/L
same,MIC Streptococcus pneumoniae (GC 4565),Streptococcus sp.; Streptococcus pneumoniae (GC 4565),<0.06 mg/L
same,MIC Streptococcus pyogenes (GC 4563),Streptococcus sp.; Streptococcus pyogenes (GC 4563),16 mg/L
same,MIC Streptococcus agalactiae (GC 4564),Streptococcus sp.; [1],1 mg/L
same,MIC Streptococcus pneumoniae (ATCC 6301),Streptococcus sp.; [1],0.12 mg/L
same,MIC Streptococcus pneumoniae (GC 1894),Streptococcus sp.; [1],<0.06 mg/L
same,MIC Streptococcus pneumoniae (GC 4565),Streptococcus sp.; [1],<0.06 mg/L
same,MIC Streptococcus pyogenes (GC 4563),Streptococcus sp.; [1],16 mg/L
same,MIC Escherichia coli (ATCC 25922),Escherichia coli; Escherichia coli (ATCC 25922),>64 mg/L
same,MIC Escherichia coli (GC 4559),Escherichia coli; Escherichia coli (GC 4559),>64 mg/L
same,MIC Escherichia coli (GC 4560),Escherichia coli; Escherichia coli (GC 4560),>64 mg/L
